Patent publication US11066396B2 (priority 2016, dated 2021)

What was measured:
HDAC1 = HDAC1 (Homo sapiens (Human), UniProt Q13547); details: read-out: HDAC1 IC50
HDAC8 = HDAC8 (Homo sapiens (Human), UniProt Q9BY41); details: read-out: HDAC8 IC50
Chain of HDAC8 (Q9BY41 whole entry): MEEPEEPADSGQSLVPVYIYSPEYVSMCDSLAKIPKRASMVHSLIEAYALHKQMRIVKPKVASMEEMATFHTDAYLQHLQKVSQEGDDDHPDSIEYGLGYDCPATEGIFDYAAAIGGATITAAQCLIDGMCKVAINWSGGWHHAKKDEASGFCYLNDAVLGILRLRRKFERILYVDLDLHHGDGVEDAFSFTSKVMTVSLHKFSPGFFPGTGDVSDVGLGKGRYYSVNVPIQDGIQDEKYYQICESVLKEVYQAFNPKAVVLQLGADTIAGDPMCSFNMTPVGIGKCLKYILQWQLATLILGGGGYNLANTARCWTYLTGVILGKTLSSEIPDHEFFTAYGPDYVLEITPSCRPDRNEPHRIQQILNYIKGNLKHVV

Chain of HDAC1 (Q13547 whole entry): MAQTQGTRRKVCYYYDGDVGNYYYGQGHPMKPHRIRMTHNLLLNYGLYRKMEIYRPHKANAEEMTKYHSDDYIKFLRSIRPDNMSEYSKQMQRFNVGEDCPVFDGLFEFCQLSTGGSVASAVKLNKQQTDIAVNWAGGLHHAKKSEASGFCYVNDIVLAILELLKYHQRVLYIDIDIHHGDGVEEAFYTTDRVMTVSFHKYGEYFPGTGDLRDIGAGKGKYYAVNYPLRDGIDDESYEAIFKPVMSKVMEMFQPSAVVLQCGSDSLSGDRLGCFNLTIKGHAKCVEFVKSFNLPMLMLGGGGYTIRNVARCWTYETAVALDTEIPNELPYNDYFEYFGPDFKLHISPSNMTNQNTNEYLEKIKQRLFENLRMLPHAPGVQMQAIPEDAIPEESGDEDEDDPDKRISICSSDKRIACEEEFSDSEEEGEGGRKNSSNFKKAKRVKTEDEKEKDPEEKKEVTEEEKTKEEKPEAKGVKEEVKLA

In the case of `O=C1CCC(c2ccccc2Cl)N1c1ccc(-c2noc(C(F)(F)F)n2)c(F)c1` (racemic) [Example 37, 5-(2-chlorophenyl)-1-(3-fluoro-4-(5-(trifluoromethyl)-1,2,4-oxadiazol-3-yl)phenyl)pyrrolidin-2-one], the IC50 (HDAC1) is reported as 16 µM and the IC50 (HDAC8) is reported as 10 µM.
Molecule `Cc1noc(C2CCCC(=O)N2c2ccc(-c3noc(C(F)(F)F)n3)cc2)n1` (racemic) [Example 48, 6-(3-methyl-1,2,4-oxadiazol-5-yl)-1-(4-(5-(trifluoromethyl)-1,2,4-oxadiazol-3-yl)phenyl)piperidin-2-one] has an IC50 (HDAC1) of 2.2 µM and an IC50 (HDAC8) of 1.8 µM.
`O=C(C1CCS(=O)(=O)C1)N(Cc1ccc(-c2noc(C(F)(F)F)n2)cn1)c1cccc(F)c1` (racemic) [Example 54, N-(3-fluorophenyl)-N-((5-(5-(trifluoromethyl)-1,2,4-oxadiazol-3-yl)pyridin-2-yl)methyl)tetrahydrothiophene-3-carboxamide 1,1-dioxide] was tested, and the IC50 (HDAC1) was 0.27 µM and the IC50 (HDAC8) was 2.6 µM.
In the case of `O=C1NCCN(c2ccc(-c3noc(C(F)(F)F)n3)cn2)C1c1cccc(F)c1` (racemic) [Example 132, 3-(3-fluorophenyl)-4-(5-(5-(trifluoromethyl)-1,2,4-oxadiazol-3-yl)pyridin-2-yl)piperazin-2-one], the IC50 (HDAC8) is reported as 0.63 µM.
Molecule `FC(F)(F)c1cccc(C2COCCN2c2ccc(-c3noc(C(F)(F)F)n3)cn2)c1` (racemic) [Example 146, 4-(5-(5-(trifluoromethyl)-1,2,4-oxadiazol-3-yl)pyridin-2-yl)-3-(3-(trifluoromethyl)phenyl)morpholine] has an IC50 (HDAC8) of 20 µM.
For `FC(F)(F)c1nc(-c2ccc(N3CCCCC3c3ccccn3)nc2)no1` (racemic) [Example 147, 3-(6-(2-(pyridin-2-yl)piperidin-1-yl)pyridin-3-yl)-5-(trifluoromethyl)-1,2,4-oxadiazole], the IC50 (HDAC8) was 3.2 µM.
`FC(F)(F)c1nc(-c2ccc(N3CCCC3c3ccncc3)nc2)no1` (racemic) [Example 150, 3-(6-(2-(pyridin-4-yl)pyrrolidin-1-yl)pyridin-3-yl)-5-(trifluoromethyl)-1,2,4-oxadiazole] showed an IC50 (HDAC8) of 1.8 µM.
`FC(F)(F)c1nc(-c2ccc(N3CCCC3c3cccnc3)nc2)no1` (racemic) [Example 151, 3-(6-(2-(pyridin-3-yl)pyrrolidin-1-yl)pyridin-3-yl)-5-(trifluoromethyl)-1,2,4-oxadiazole] showed an IC50 (HDAC8) of 1.6 µM.
With `OCC1CC(c2ccccc2)N(c2ccc(-c3noc(C(F)(F)F)n3)cn2)C1` (racemic) [Example 152, (5-phenyl-1-(5-(5-(trifluoromethyl)-1,2,4-oxadiazol-3-yl)pyridin-2-yl)pyrrolidin-3-yl)methanol] the IC50 (HDAC8) was 0.84 µM.
With `FC(F)(F)c1nc(-c2ccc(N3CCCC3c3ccccn3)nc2)no1` (racemic) [Example 154, 3-(6-(2-(pyridin-2-yl)pyrrolidin-1-yl)pyridin-3-yl)-5-(trifluoromethyl)-1,2,4-oxadiazole] the IC50 (HDAC8) was 3.4 µM.
`Cc1nonc1C1CCCN1c1ccc(-c2noc(C(F)(F)F)n2)cn1` (racemic) [Example 155, 3-(6-(2-(4-methyl-1,2,5-oxadiazol-3-yl)pyrrolidin-1-yl)pyridin-3-yl)-5-(trifluoromethyl)-1,2,4-oxadiazole] was tested, and the IC50 (HDAC8) was 1.8 µM.
For `FC(F)(F)c1nc(-c2ccc(N3CCCCC3c3cccnc3)nc2)no1` (racemic) [Example 157, 3-(6-(2-(pyridin-3-yl)piperidin-1-yl)pyridin-3-yl)-5-(trifluoromethyl)-1,2,4-oxadiazole], the IC50 (HDAC8) was 3.3 µM.
`CCOC(=O)N1CCN(c2ccc(-c3noc(C(F)(F)F)n3)cn2)C(c2ccccc2)C1` (racemic) [Example 159, ethyl 3-phenyl-4-(5-(5-(trifluoromethyl)-1,2,4-oxadiazol-3-yl)pyridin-2-yl)piperazine-1-carboxylate] gave an IC50 (HDAC8) of 4 µM.
Molecule `FC(F)(F)c1nc(-c2ccc(CNCC3CN(Cc4ccccc4)CCO3)nc2)no1` (racemic) [Example 453, 1-(4-benzylmorpholin-2-yl)-N-({5-[5-(trifluoromethyl)-1,2,4-oxadiazol-3-yl]pyridin-2-yl}methyl)methanamine] has an IC50 (HDAC8) of 1.9 µM.
`FC(F)(F)c1nc(-c2ccc(CNCC3CN(c4ccccc4)CCO3)nc2)no1` (racemic) [Example 454, 1-(4-phenylmorpholin-2-yl)-N-({5-[5-(trifluoromethyl)-1,2,4-oxadiazol-3-yl]pyridin-2-yl}methyl)methanamine] was tested, and the IC50 (HDAC8) was 1.7 µM.
`Cc1noc([C@H]2CCCCN2c2ccc(-c3noc(C(F)(F)F)n3)cn2)n1` [Example 138, (R)-3-methyl-5-(1-(5-(5-(trifluoromethyl)-1,2,4-oxadiazol-3-yl)pyridin-2-yl)piperidin-2-yl)-1,2,4-oxadiazole] showed an IC50 (HDAC8) of 1.2 µM.
`FC(F)(F)c1nc(-c2ccc(N3CCOC[C@H]3c3ccccc3)nc2)no1` [Example 144, (R)-3-phenyl-4-(5-(5-(trifluoromethyl)-1,2,4-oxadiazol-3-yl)pyridin-2-yl)morpholine] was tested, and the IC50 (HDAC8) was 2.7 µM.
With `Cc1cc(=O)n2c(n1)CN(c1ccc(-c3noc(C(F)(F)F)n3)cn1)CC2` [Example 158, 2-methyl-8-(5-(5-(trifluoromethyl)-1,2,4-oxadiazol-3-yl)pyridin-2-yl)-6,7,8,9-tetrahydro-4H-pyrazino[1,2-a]pyrimidin-4-one] the IC50 (HDAC8) was 0.75 µM.
For `O=C1CCc2ccc(F)cc2N1Cc1ccc(-c2noc(C(F)(F)F)n2)cc1` [Example 318, 7-fluoro-1-{4-[5-(trifluoromethyl)-1,2,4-oxadiazol-3-yl]benzyl}-3,4-dihydroquinolin-2(1H)-one], the IC50 (HDAC8) was 1.8 µM.
Work on `O=C1c2cc(F)ccc2CCN1Cc1ccc(-c2noc(C(F)(F)F)n2)cn1` [Example 327, 7-fluoro-2-({5-[5-(trifluoromethyl)-1,2,4-oxadiazol-3-yl]pyridin-2-yl}methyl)-3,4-dihydroisoquinolin-1(2H)-one] yielded an IC50 (HDAC1) of 0.64 µM.
With `O=C1CCc2ncccc2N1Cc1ccc(-c2noc(C(F)(F)F)n2)cn1` [Example 328, 1-({5-[5-(trifluoromethyl)-1,2,4-oxadiazol-3-yl]pyridin-2-yl}methyl)-3,4-dihydro-1,5-naphthyridin-2(1H)-one] the IC50 (HDAC1) was 0.58 µM.
Molecule `Fc1ccc2c(c1)N(Cc1ccc(-c3noc(C(F)(F)F)n3)cn1)CCO2` [Example 347, 6-fluoro-4-({5-[5-(trifluoromethyl)-1,2,4-oxadiazol-3-yl]pyridin-2-yl}methyl)-3,4-dihydro-2H-1,4-benzoxazine] has an IC50 (HDAC1) of 0.6 µM.
For `CC1(Cc2ccc(-c3noc(C(F)(F)F)n3)cc2)C(=O)Nc2ccc(F)cc21` (stereo not drawn) [Example 348, 5-fluoro-3-methyl-3-{4-[5-(trifluoromethyl)-1,2,4-oxadiazol-3-yl]benzyl}-1,3-dihydro-2H-indol-2-one], the IC50 (HDAC1) was 2.4 µM.
For `FC(F)(F)c1nc(-c2ccc(CNc3cccc(-c4cnco4)c3)nc2)no1` [Example 360, 3-(1,3-oxazol-5-yl)-N-({5-[5-(trifluoromethyl)-1,2,4-oxadiazol-3-yl]pyridin-2-yl}methyl)aniline], the IC50 (HDAC1) was 0.0076 µM.
`FC(F)(F)c1nc(-c2ccc(CNc3cccc(-n4cncn4)c3)nc2)no1` [Example 364, 3-(1H-1,2,4-triazol-1-yl)-N-({5-[5-(trifluoromethyl)-1,2,4-oxadiazol-3-yl]pyridin-2-yl}methyl)aniline] was tested, and the IC50 (HDAC1) was 0.06 µM.
Work on `FC(F)(F)c1nc(-c2ccc(CNc3cc[nH]n3)nc2)no1` [Example 432, N-({5-[5-(trifluoromethyl)-1,2,4-oxadiazol-3-yl]pyridin-2-yl}methyl)-1H-pyrazol-3-amine] yielded an IC50 (HDAC8) of 1.3 µM.
`O=C(c1cccc(NCc2ccc(-c3noc(C(F)(F)F)n3)cn2)c1)N1CCCC1` [Example 439, 3-(pyrrolidin-1-ylcarbonyl)-N-({5-[5-(trifluoromethyl)-1,2,4-oxadiazol-3-yl]pyridin-2-yl}methyl)aniline] gave an IC50 (HDAC8) of 1.4 µM.
In the case of `O=C(Nc1ccccc1)c1cccc(NCc2ccc(-c3noc(C(F)(F)F)n3)cn2)c1` [Example 440, N-phenyl-3-[({5-[5-(trifluoromethyl)-1,2,4-oxadiazol-3-yl]pyridin-2-yl}methyl)amino]benzamide], the IC50 (HDAC8) is reported as 0.28 µM.
For `O=C(NCc1ccccc1)c1ccccc1NCc1ccc(-c2noc(C(F)(F)F)n2)cn1` [Example 448, N-benzyl-2-[({5-[5-(trifluoromethyl)-1,2,4-oxadiazol-3-yl]pyridin-2-yl}methyl)amino]benzamide], the IC50 (HDAC8) was 0.53 µM.
`CC(=O)N1CCC(CNCc2ccc(-c3noc(C(F)(F)F)n3)cn2)CC1` [Example 455, 1-(1-acetylpiperidin-4-yl)-N-({5-[5-(trifluoromethyl)-1,2,4-oxadiazol-3-yl]pyridin-2-yl}methyl)methanamine] gave an IC50 (HDAC8) of 3.8 µM.
For `NC(=O)c1cccc(CCOc2cc(-c3noc(C(F)(F)F)n3)ccn2)c1` [Example 459, 3-[2-({4-[5-(trifluoromethyl)-1,2,4-oxadiazol-3-yl]pyridin-2-yl}oxy)ethyl]benzamide], the IC50 (HDAC1) was 1.8 µM.
Work on `O=c1ccc2ccccc2n1Cc1ccc(-c2noc(C(F)(F)F)n2)cn1` [Example 460, 1-({5-[5-(trifluoromethyl)-1,2,4-oxadiazol-3-yl]pyridin-2-yl}methyl)quinolin-2(1H)-one] yielded an IC50 (HDAC1) of 0.099 µM.
For `O=C1CSc2ccccc2N1Cc1ccc(-c2noc(C(F)(F)F)n2)cn1` [Example 463, 4-({5-[5-(trifluoromethyl)-1,2,4-oxadiazol-3-yl]pyridin-2-yl}methyl)-2H-1,4-benzothiazin-3(4H)-one], the IC50 (HDAC1) was 0.13 µM.
`O=C1CCc2cc(C(F)(F)F)ccc2N1Cc1ccc(-c2noc(C(F)(F)F)n2)cn1` [Example 464, 6-(trifluoromethyl)-1-({5-[5-(trifluoromethyl)-1,2,4-oxadiazol-3-yl]pyridin-2-yl}methyl)-3,4-dihydroquinolin-2(1H)-one] was tested, and the IC50 (HDAC1) was 0.3 µM.
Molecule `Cc1nc2cc(F)ccc2n1Cc1ccc(-c2noc(C(F)(F)F)n2)cn1` [Example 466, 5-fluoro-2-methyl-1-({5-[5-(trifluoromethyl)-1,2,4-oxadiazol-3-yl]pyridin-2-yl}methyl)-1H-benzimidazole] has an IC50 (HDAC1) of 0.84 µM.
For `O=c1cnc2ccccc2n1Cc1ccc(-c2noc(C(F)(F)F)n2)cn1` [Example 467, 1-({5-[5-(trifluoromethyl)-1,2,4-oxadiazol-3-yl]pyridin-2-yl}methyl)quinoxalin-2(1H)-one], the IC50 (HDAC1) was 0.17 µM.
